Reference: patent publication US12371454B2, “Cyclic peptide compound having Kras inhibitory action” (priority 2019, dated 2025)
Starred links: 1 amine or outer side, 2 acyl side, 3 side chain; linkers in the order of their positions; H or OH if unused. Positions of bridges follow the written chain, without caps; N, C: chain ends. Non-standard residues stand in square brackets, D forms with d. Residues, ends and D or L forms follow the SMILES beside them. *: point of attachment. hPhe(3-Cl-4-CF3) = N[C@@H](CCc1ccc(C(F)(F)F)c(Cl)c1)C(=O)O; hPhe(3-F,4-CF3) = N[C@@H](CCc1ccc(C(F)(F)F)c(F)c1)C(=O)O; NMePhe(3-CF3) = CN[C@@H](Cc1cccc(C(F)(F)F)c1)C(=O)O; NMePhe(4-CF3) = CN[C@@H](Cc1ccc(C(F)(F)F)cc1)C(=O)O; NMePhe(2-CF3) = CN[C@@H](Cc1ccccc1C(F)(F)F)C(=O)O; NMePhe(3-Me) = CN[C@@H](Cc1cccc(C)c1)C(=O)O; NMePhe(4-Me) = CN[C@@H](Cc1ccc(C)cc1)C(=O)O; NMePhe(3-F) = CN[C@@H](Cc1cccc(F)c1)C(=O)O; NMePhe(4-F) = CN[C@@H](Cc1ccc(F)cc1)C(=O)O; NMePhe(2-Me) = CN[C@@H](Cc1ccccc1C)C(=O)O; NMedβ3hAla = C[C@H](CC(=O)[*:2])N(C)[*:1]; NMeGly(cPent) = CN[C@H](C(=O)O)C1CCCC1; NMeY = CN[C@@H](Cc1ccc(O)cc1)C(=O)O; NMeCha = CN[C@@H](CC1CCCCC1)C(=O)O; NMeD = CN[C@@H](CC(=O)O)C(=O)O; NMeL = CN[C@@H](CC(C)C)C(=O)O; NMeV = CN[C@H](C(=O)O)C(C)C; d(β3hA) = C[C@@H](N)CC(=O)O; NMeA = CN[C@@H](C)C(=O)O; Piperidide = C1CCN(*)CC1; Ac5c = NC1(C(=O)O)CCCC1; Aze = O=C(O)[C@@H]1CCN1; Ac4c = NC1(C(=O)O)CCC1; CF3 = FC(F)(F)*; Sar = CNCC(=O)O

What was measured:
[1] = biological target: T1, Kras and SOS1 (biotin-tagged human Kras loaded with GDP, His-tagged human SOS1) (Homo sapiens, UniProt P01116, G12D); test: Protein-protein interaction inhibition between Kras and SOS1 (KrasGl2D-SOS PPI) using AlphaScreen; format: binding; conditions: AlphaScreen; biotin-tagged human Kras loaded with GDP, His-tagged human SOS1; read-out: KRAS G12D-SOS PPI IC50
T1 construct: made in house; host or cells: E. coli (stated for Kras only)
Method in brief: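 Donor beads (nickel) hold His-SOS1; acceptor beads (streptavidin) hold biotin-Kras bound to GDP. Signal measured at 520-620 nm following 680 nm excitation.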

[2] = system: Human pancreatic cancer cell line AsPC-1; test: Measurement of AsPC-1 cell growth inhibition (AsPC-1 CGI); format: cell-based; conditions: 96 h
Method in brief: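 AsPC-1 cells in 15% FBS RPMI-1640 were exposed to test compound for 96 hours at 37° C, with CellTiter-Glo as endpoint.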

T1 sequence (P01116 1-188 isoform P01116-2 G12D): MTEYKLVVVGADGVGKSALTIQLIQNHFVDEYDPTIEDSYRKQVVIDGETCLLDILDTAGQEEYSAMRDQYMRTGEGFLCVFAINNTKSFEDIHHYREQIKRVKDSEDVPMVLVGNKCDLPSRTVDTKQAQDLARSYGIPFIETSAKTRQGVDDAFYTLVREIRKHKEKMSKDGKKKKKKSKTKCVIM

Row | SMILES | IC50 [1] [nM] | IC50 [2] [nM]
1 | CC[C@H](C)[C@@H]1NC(=O)[C@H](CC(C)C)N(C)C(=O)C[C@@H](C(=O)N2CCCCC2)N(C)C(=O)[C@H](CC(C)C)N(C)C(=O)C2(CCCC2)NC(=O)[C@@H]2CCCN2C(=O)[C@H](CCc2ccc(C(F)(F)F)c(F)c2)NC(=O)CN(C)C(=O)[C@H](CC2CCCCC2)N(C)C(=O)CN(C)C(=O)CN(C)C1=O [Compound 1501] ([NMeL]I[Sar][Sar][NMeCha][Sar][hPhe(3-F,4-CF3)]P[Ac5c][NMeL][NMeD]-Piperidide; lactam N-11) | 14 | 100 to 500
2 | CC[C@H](C)[C@@H]1NC(=O)[C@H](CC(C)C)N(C)C(=O)C[C@@H](C)NC(=O)[C@H](C2CCCC2)N(C)C(=O)C2(CCC2)NC(=O)[C@@H]2CCCN2C(=O)[C@H](CCc2ccc(C(F)(F)F)c(Cl)c2)NC(=O)CN(C)C(=O)[C@H](Cc2ccc(C(F)(F)F)cc2)N(C)C(=O)CN(C)C(=O)CN(C)C1=O [Compound 1508] (cyclo([Ac4c][NMeGly(cPent)][d(β3hA)][NMeL]I[Sar][Sar][NMePhe(4-CF3)][Sar][hPhe(3-Cl-4-CF3)]P)) | 1.3 | 100 to 500
3 | CC[C@H](C)[C@@H]1NC(=O)[C@H](C)N(C)C(=O)C[C@@H](C)NC(=O)[C@H](C2CCCC2)N(C)C(=O)C2(CCCC2)NC(=O)[C@@H]2CCCN2C(=O)[C@H](CCc2ccc(C(F)(F)F)c(Cl)c2)NC(=O)CN(C)C(=O)[C@H](Cc2ccc(C(F)(F)F)cc2)N(C)C(=O)CN(C)C(=O)CN(C)C1=O [Compound 1523] (cyclo([Ac5c][NMeGly(cPent)][d(β3hA)][NMeA]I[Sar][Sar][NMePhe(4-CF3)][Sar][hPhe(3-Cl-4-CF3)]P)) | 0.75 | 100 to 500
4 | CC[C@H](C)[C@@H]1NC(=O)[C@H](CC(C)C)N(C)C(=O)C[C@@H](C)NC(=O)[C@H](C2CCCC2)N(C)C(=O)C2(CCCC2)NC(=O)[C@@H]2CCCN2C(=O)[C@H](CCc2ccc(C(F)(F)F)c(Cl)c2)NC(=O)CN(C)C(=O)[C@H](Cc2ccc(C(F)(F)F)cc2)N(C)C(=O)CN(C)C(=O)CN(C)C1=O [Compound 1524] (cyclo([Ac5c][NMeGly(cPent)][d(β3hA)][NMeL]I[Sar][Sar][NMePhe(4-CF3)][Sar][hPhe(3-Cl-4-CF3)]P)) | 1.9 | 50 to 100
5 | CC[C@H](C)[C@@H]1NC(=O)[C@H](CC(C)C)N(C)C(=O)C[C@@H](C)NC(=O)[C@H](C2CCCC2)N(C)C(=O)C2(CCCC2)NC(=O)[C@@H]2CCCN2C(=O)[C@H](CCc2ccc(C(F)(F)F)c(Cl)c2)NC(=O)CN(C)C(=O)[C@H](Cc2ccc(C)cc2)N(C)C(=O)[C@@H]2CCN2C(=O)[C@H](C)N(C)C1=O [Compound 1537] (cyclo([Ac5c][NMeGly(cPent)][d(β3hA)][NMeL]I[NMeA][Aze][NMePhe(4-Me)][Sar][hPhe(3-Cl-4-CF3)]P)) | 3.9 | 50 to 100
6 | CC[C@H](C)[C@@H]1NC(=O)[C@H](CC(C)C)N(C)C(=O)C[C@@H](C)NC(=O)[C@H](C2CCCC2)N(C)C(=O)C2(CCC2)NC(=O)[C@@H]2CCCN2C(=O)[C@H](CCc2ccc(C(F)(F)F)c(Cl)c2)NC(=O)CN(C)C(=O)[C@H](CC2CCCCC2)N(C)C(=O)CN(C)C(=O)CN(C)C1=O [Compound 1544] (cyclo([Ac4c][NMeGly(cPent)][d(β3hA)][NMeL]I[Sar][Sar][NMeCha][Sar][hPhe(3-Cl-4-CF3)]P)) | 5.6 | 100 to 500
7 | CC[C@H](C)[C@@H]1NC(=O)[C@H](CC(C)C)N(C)C(=O)C[C@@H](C)N(C)C(=O)[C@H](C(C)C)N(C)C(=O)C2(CCCC2)NC(=O)[C@@H]2CCCN2C(=O)[C@H](CCc2ccc(C(F)(F)F)c(Cl)c2)NC(=O)CN(C)C(=O)[C@H](Cc2ccc(C)cc2)N(C)C(=O)CN(C)C(=O)CN(C)C1=O [Compound 1549] (cyclo([Ac5c][NMeV][NMedβ3hAla][NMeL]I[Sar][Sar][NMePhe(4-Me)][Sar][hPhe(3-Cl-4-CF3)]P)) | 3.6 | 50 to 100
8 | CC[C@H](C)[C@@H]1NC(=O)[C@H](CC(C)C)N(C)C(=O)C[C@@H](C)N(C)C(=O)[C@H](C(C)C)N(C)C(=O)C2(CCCC2)NC(=O)[C@@H]2CCCN2C(=O)[C@H](CCc2ccc(C(F)(F)F)c(Cl)c2)NC(=O)CN(C)C(=O)[C@H](Cc2ccccc2C)N(C)C(=O)CN(C)C(=O)CN(C)C1=O [Compound 1550] (cyclo([Ac5c][NMeV][NMedβ3hAla][NMeL]I[Sar][Sar][NMePhe(2-Me)][Sar][hPhe(3-Cl-4-CF3)]P)) | 19 | 50 to 100
9 | CC[C@H](C)[C@@H]1NC(=O)[C@H](CC(C)C)N(C)C(=O)C[C@@H](C)N(C)C(=O)[C@H](C(C)C)N(C)C(=O)C2(CCCC2)NC(=O)[C@@H]2CCCN2C(=O)[C@H](CCc2ccc(C(F)(F)F)c(Cl)c2)NC(=O)CN(C)C(=O)[C@H](Cc2ccc(OC)cc2)N(C)C(=O)CN(C)C(=O)CN(C)C1=O [Compound 1551] (cyclo([Ac5c][NMeV][NMedβ3hAla][NMeL]I[Sar][Sar][NMeY](Me)[Sar][hPhe(3-Cl-4-CF3)]P)) | 4.9 | 50 to 100
10 | CC[C@H](C)[C@@H]1NC(=O)[C@H](CC(C)C)N(C)C(=O)C[C@@H](C(=O)N2CCCCC2)N(C)C(=O)[C@H](C(C)C)N(C)C(=O)C2(CCCC2)NC(=O)[C@@H]2CCCN2C(=O)[C@H](CCc2ccc(C(F)(F)F)c(Cl)c2)NC(=O)CN(C)C(=O)[C@H](Cc2cccc(C(F)(F)F)c2)N(C)C(=O)CN(C)C(=O)CN(C)C1=O [Compound 1555] ([NMeL]I[Sar][Sar][NMePhe(3-CF3)][Sar][hPhe(3-Cl-4-CF3)]P[Ac5c][NMeV][NMeD]-Piperidide; lactam N-11) | 6.1 | 100 to 500
11 | CC[C@H](C)[C@@H]1NC(=O)[C@H](CC(C)C)N(C)C(=O)C[C@@H](C(=O)N2CCCCC2)N(C)C(=O)[C@H](C(C)C)N(C)C(=O)C2(CCCC2)NC(=O)[C@@H]2CCCN2C(=O)[C@H](CCc2ccc(C(F)(F)F)c(Cl)c2)NC(=O)CN(C)C(=O)[C@H](Cc2cccc(F)c2)N(C)C(=O)CN(C)C(=O)CN(C)C1=O [Compound 1557] ([NMeL]I[Sar][Sar][NMePhe(3-F)][Sar][hPhe(3-Cl-4-CF3)]P[Ac5c][NMeV][NMeD]-Piperidide; lactam N-11) | 5.7 | 100 to 500
12 | CC[C@H](C)[C@@H]1NC(=O)[C@H](CC(C)C)N(C)C(=O)C[C@@H](C)N(C)C(=O)[C@H](C(C)C)N(C)C(=O)C2(CCCC2)NC(=O)[C@@H]2CCCN2C(=O)[C@H](CCc2ccc(C(F)(F)F)c(Cl)c2)NC(=O)CN(C)C(=O)[C@H](Cc2ccc(OC(F)(F)F)cc2)N(C)C(=O)CN(C)C(=O)CN(C)C1=O [Compound 1563] (cyclo([Ac5c][NMeV][NMedβ3hAla][NMeL]I[Sar][Sar][NMeY](CF3)[Sar][hPhe(3-Cl-4-CF3)]P)) | 6.2 | 50 to 100
13 | CC[C@H](C)[C@@H]1NC(=O)[C@H](CC(C)C)N(C)C(=O)C[C@@H](C)NC(=O)[C@H](C(C)C)N(C)C(=O)C2(CCCC2)NC(=O)[C@@H]2CCCN2C(=O)[C@H](CCc2ccc(C(F)(F)F)c(Cl)c2)NC(=O)CN(C)C(=O)[C@H](Cc2ccc(OC(F)(F)F)cc2)N(C)C(=O)CN(C)C(=O)CN(C)C1=O [Compound 1565] (cyclo([Ac5c][NMeV][d(β3hA)][NMeL]I[Sar][Sar][NMeY](CF3)[Sar][hPhe(3-Cl-4-CF3)]P)) | 14 | 100 to 500
14 | CC[C@H](C)[C@@H]1NC(=O)[C@H](CC(C)C)N(C)C(=O)C[C@@H](C)N(C)C(=O)[C@H](C(C)C)N(C)C(=O)C2(CCCC2)NC(=O)[C@@H]2CCCN2C(=O)[C@H](CCc2ccc(C(F)(F)F)c(Cl)c2)NC(=O)CN(C)C(=O)[C@H](Cc2ccccc2C(F)(F)F)N(C)C(=O)CN(C)C(=O)CN(C)C1=O [Compound 1567] (cyclo([Ac5c][NMeV][NMedβ3hAla][NMeL]I[Sar][Sar][NMePhe(2-CF3)][Sar][hPhe(3-Cl-4-CF3)]P)) | 33 | 100 to 500
15 | CC[C@H](C)[C@@H]1NC(=O)[C@H](CC(C)C)N(C)C(=O)C[C@@H](C)N(C)C(=O)[C@H](C(C)C)N(C)C(=O)C2(CCCC2)NC(=O)[C@@H]2CCCN2C(=O)[C@H](CCc2ccc(C(F)(F)F)c(Cl)c2)NC(=O)CN(C)C(=O)[C@H](Cc2cccc(C)c2)N(C)C(=O)CN(C)C(=O)CN(C)C1=O [Compound 1570] (cyclo([Ac5c][NMeV][NMedβ3hAla][NMeL]I[Sar][Sar][NMePhe(3-Me)][Sar][hPhe(3-Cl-4-CF3)]P)) | 4.3 | 50 to 100
16 | CC[C@H](C)[C@@H]1NC(=O)[C@H](CC(C)C)N(C)C(=O)C[C@@H](C)N(C)C(=O)[C@H](C(C)C)N(C)C(=O)C2(CCCC2)NC(=O)[C@@H]2CCCN2C(=O)[C@H](CCc2ccc(C(F)(F)F)c(Cl)c2)NC(=O)CN(C)C(=O)[C@H](Cc2ccc(F)cc2)N(C)C(=O)CN(C)C(=O)CN(C)C1=O [Compound 1571] (cyclo([Ac5c][NMeV][NMedβ3hAla][NMeL]I[Sar][Sar][NMePhe(4-F)][Sar][hPhe(3-Cl-4-CF3)]P)) | 4.8 | 50 to 100
17 | CC[C@H](C)[C@@H]1NC(=O)[C@H](CC(C)C)N(C)C(=O)C[C@@H](C)N(C)C(=O)[C@H](C(C)C)N(C)C(=O)C2(CCCC2)NC(=O)[C@@H]2CCCN2C(=O)[C@H](CCc2ccc(C(F)(F)F)c(Cl)c2)NC(=O)CN(C)C(=O)[C@H](Cc2cccc(C(F)(F)F)c2)N(C)C(=O)CN(C)C(=O)CN(C)C1=O [Compound 1572] (cyclo([Ac5c][NMeV][NMedβ3hAla][NMeL]I[Sar][Sar][NMePhe(3-CF3)][Sar][hPhe(3-Cl-4-CF3)]P)) | 9.8 | 50 to 100
